One block for each molecule: values may come before it. Peptide text beside a SMILES is read from it. * marks the point of attachment. 5FAM = O=C1OC2(c3ccc(O)cc3Oc3cc(O)ccc32)c2ccc(C(=O)*)cc21; Ahx = NCCCCCC(=O)O
Experiments:
Format in all cases: binding
MyoVb-GTD [1] = target: T1, MyoVb-GTD (Homo sapiens, UniProt Q9ULV0); assay: Fluorescence anisotropy, fluorescein-labeled Spir-2 peptide
T1 construct: aa 1456 - 1848 (BamHI / XhoI); His6 (6xHis) with rTEV site (N, cleaved yes); made in house; host or cells: Escherichia coli BL21(DE3) or BL21-CodonPlus-RILP
T1 sequence (Q9ULV0 1456-1848): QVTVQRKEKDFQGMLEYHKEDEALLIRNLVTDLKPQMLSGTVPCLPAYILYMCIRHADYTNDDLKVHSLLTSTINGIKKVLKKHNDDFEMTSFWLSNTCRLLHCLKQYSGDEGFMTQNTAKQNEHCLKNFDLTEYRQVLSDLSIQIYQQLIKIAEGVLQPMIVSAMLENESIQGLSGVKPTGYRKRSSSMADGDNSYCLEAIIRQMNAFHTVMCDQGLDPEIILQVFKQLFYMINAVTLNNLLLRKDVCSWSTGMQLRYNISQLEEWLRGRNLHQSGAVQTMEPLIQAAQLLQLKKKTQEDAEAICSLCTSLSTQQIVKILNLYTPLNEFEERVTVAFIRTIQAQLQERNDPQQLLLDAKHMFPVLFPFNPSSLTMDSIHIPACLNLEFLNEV
Method: (§1) Fluorescence anisotropy measurements were performed on a PTI Quanta-Master QM4CW spectrofluorometer (PTI, Lawrenceville, NJ, USA) at 25°C using a 10 mm wide quartz cell. Bandwidths of excitation and emission monochromators were set respectively at 5 and 15 nm. Fluorescence anisotropy, expressed in millianisotropy units, was calculated according to the equation A=IVV−GIVH/IVV+2GIVH
(§2) with A is anisotropy, G = IHV/IHH is a correction factor for wavelength-dependent distortion, and I is the fluorescence intensity component. Anisotropy values were averaged from 30 different acquisitions. The cell was charged with 1 µM of fluorescein labeled Spir-2-401-427 peptide in a final volume of 1 ml in buffer (100 mM Tris-HCl pH 8.0, 150 mM NaCl, 2 mM MgCl2, 2 mM TCEP, 5% (v/v) glycerol) and titrated with MyoVa-GTD or MyoVb-GTD (50 nM–5 µM). The binding isotherms were fitted to obtain the equilibrium dissociation constants Kd and standard errors, by using the Origin 2015 software that implements Levenberg Marquardt iterative minimization algorithms, using the equation y=F0+Fm−F0/2P(P+x+Kd−(P+x+Kd)^2−4Px)
(§3) with y represents the fluorescence anisotropy, x the concentration of MyoV-GTD, F0 the initial anisotropy, Fm the maximum anisotropy, and P the peptide concentration. Experiments were repeated twice with two different protein preparations.

MyoVa-GTD [2] = target: T2, MyoVa-GTD (Homo sapiens, UniProt Q9Y4I1); assay: as above; settings: 1 µM peptide, MyoVa-GTD 50 nM–5 µM; 100 mM Tris-HCl pH 8.0, 150 mM NaCl, 2 mM MgCl2, 2 mM TCEP, 5% glycerol; 25°C; ± standard error; repeated twice with two protein preparations; read-out: equilibrium dissociation constant (Kd)
T2 construct: aa 1461 - 1853 (BamHI / XhoI); His6 (6xHis) with rTEV site (N, cleaved yes); made in house; host or cells: Escherichia coli BL21(DE3) or BL21-CodonPlus-RILP
T2 sequence (Q9Y4I1 1463-1855): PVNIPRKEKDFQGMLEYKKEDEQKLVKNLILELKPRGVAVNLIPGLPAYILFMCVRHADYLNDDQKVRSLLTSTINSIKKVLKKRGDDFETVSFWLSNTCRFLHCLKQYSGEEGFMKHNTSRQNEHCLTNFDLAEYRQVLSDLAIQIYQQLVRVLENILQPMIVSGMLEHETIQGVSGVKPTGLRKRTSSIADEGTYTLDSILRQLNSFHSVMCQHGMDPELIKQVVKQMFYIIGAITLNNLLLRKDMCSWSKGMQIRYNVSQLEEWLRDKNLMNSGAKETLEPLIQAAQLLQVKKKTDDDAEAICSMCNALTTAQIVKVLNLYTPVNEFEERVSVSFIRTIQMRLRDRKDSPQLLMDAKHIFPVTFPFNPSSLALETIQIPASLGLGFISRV
Method: as §1, §2, §3

MyoVc-GTD = target: T3, MyoVc-GTD (Homo sapiens, UniProt Q9NQX4); assay: Microscale thermophoresis, fluorescein-labeled Spir-2 peptide; settings: human Spir-2 aa 401–427
T3 construct: aa 1350 - 1742 (BamHI / XhoI); His6 (6xHis) with rTEV site (N, cleaved yes); made in house; host or cells: Escherichia coli BL21(DE3) or BL21-CodonPlus-RILP
T3 sequence (Q9NQX4 1350-1742): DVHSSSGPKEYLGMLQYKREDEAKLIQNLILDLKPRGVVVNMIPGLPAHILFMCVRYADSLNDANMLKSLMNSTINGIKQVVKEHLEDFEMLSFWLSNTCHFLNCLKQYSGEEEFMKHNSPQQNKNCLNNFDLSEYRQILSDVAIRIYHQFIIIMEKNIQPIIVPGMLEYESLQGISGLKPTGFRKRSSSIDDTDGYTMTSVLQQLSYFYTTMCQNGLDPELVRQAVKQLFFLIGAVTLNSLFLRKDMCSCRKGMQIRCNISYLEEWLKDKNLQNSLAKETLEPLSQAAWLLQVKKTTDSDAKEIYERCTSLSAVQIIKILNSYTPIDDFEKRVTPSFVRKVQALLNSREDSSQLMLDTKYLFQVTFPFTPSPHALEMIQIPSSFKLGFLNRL
Method: MST experiments were performed on a Monolith NT.115 system (NanoTemper Technologies, München, Germany) using 5% LED and 30% IR-laser power at 21.5°C. Laser on and off times were set at 30 s and 5 s, respectively. Fluorescein labeled Spir-2 peptide was synthesized by Genscript, the peptide was dissolved in PBS with 0.005% Tween-20 and diluted to 1 μM concentration. A two-fold dilution series was prepared for the MyoVc-GTD in the interaction buffer (50 mM Tris pH 8.0, 250 mM NaCl, 2 mM MgCl2, 2 mM TCEP, 5% (v/v) glycerol) and each dilution point was transferred to the Fluorescein-Spir-2 solution. The final concentrations of MyoVc-GTD ranged from 97 μM to 2.96 nM, the final concentration of the labeled peptide was 500 nM. Samples were filled into premium capillaries (NanoTemper Technologies) for measurements. The experiments were performed with three independent replicates. The affinity was quantified by analyzing the change in normalized fluorescence as a function of the concentration of the titrated peptide using the NTAnalysis software provided by the manufacturer.

MyoVb-GTD [3] = target: T1, MyoVb-GTD; assay: Surface plasmon resonance, Rab11a captured; settings: MyoVb-GTD 10 nM–5 µM over captured Rab11a-Q70L(GTP) or Rab11-wt(GDP); 50 mM Hepes pH 7.5, 100 mM NaCl, 2 mM MgCl2, 1 mM TCEP; 25°C; steady state; mean ± SEM, N = 3; read-out: dissociation equilibrium constant (Kd)
Method: (§4) The assays were carried out at 25°C in buffer (50 mM Hepes pH 7.5, 100 mM NaCl, 2 mM MgCl2, 1 mM TCEP). 200–250 resonance units (RU; 1RU ≈ 1 pg × mm^−2) of Rab11a-Q70L(GTP) or Rab11-wt(GDP) were captured through their His6-tag on the surface of a NTA sensorchip using a Biacore 2000 instrument (GE Healthcare Life Sciences). MyoVa-GTD or MyoVb-GTD (10 nM–5 µM) were then injected over the tethered Rabs for one minute at a flow rate of […]. The surface was regenerated with a 2-min 0.3 M EDTA incubation and a 1-min 0.1% SDS wash. The real-time interaction profiles were double referenced using the Scrubber 2.0 software (BioLogic Software, Campbell, Australia), both the signals from a reference surface (with a non-relevant protein captured on NTA) and from blank experiments using buffer instead of MyoV-GTD were subtracted. The MyoV-GTD concentration-dependence of the steady-state SPR signals was then analyzed to determine the dissociation equilibrium constants (Kd) of the different complexes using the numerical integration algorithm software Biaevaluation 4.1. Each experiment (10 point 2-fold dilution concentration series each) was repeated in triplicate, yielding mean Kd values and standard errors (SEM).

MyoVa-GTD [4] = target: T2, MyoVa-GTD; assay: Surface plasmon resonance, Rab11a captured; settings: MyoVa-GTD 10 nM–5 µM over captured Rab11a-Q70L(GTP) or Rab11-wt(GDP); 50 mM Hepes pH 7.5, 100 mM NaCl, 2 mM MgCl2, 1 mM TCEP; 25°C; steady state; mean ± SEM, N = 3; read-out: dissociation equilibrium constant (Kd)
Method: as §4

Kd (MyoVb-GTD [1]; 1 µM peptide, MyoVb-GTD 50 nM–5 µM, 100 mM Tris-HCl pH 8.0, 150 mM NaCl, 2 mM MgCl2, 2 mM TCEP, 5% glycerol, 25°C, ± standard error, repeated twice with two protein preparations, read-out: equilibrium dissociation constant (Kd)): 2000 ± 70 nM
Kd (MyoVa-GTD [2]): 900 ± 110 nM
Molecule: CSCC[C@H](NC(=O)[C@H](CCC(=O)O)NC(=O)[C@H](C)NC(=O)[C@H](CC(C)C)NC(=O)[C@@H](NC(=O)[C@@H]1CCCN1C(=O)[C@H](C)NC(=O)[C@H](CCCCN)NC(=O)[C@H](CC(C)C)NC(=O)[C@H](CC(C)C)NC(=O)[C@@H](NC(=O)[C@H](CCCNC(=N)N)NC(=O)[C@@H]1CCCN1C(=O)[C@H](CCCNC(=N)N)NC(=O)[C@@H]1CCCN1C(=O)[C@H](CCCNC(=N)N)NC(=O)[C@H](CCC(N)=O)NC(=O)CCCCCNC(=O)c1ccc2c(c1)C(=O)OC21c2ccc(O)cc2Oc2cc(O)ccc21)C(C)C)[C@@H](C)O)C(=O)N[C@@H](CCC(=O)O)C(=O)N[C@@H](CCC(=O)O)C(=O)N[C@@H](CCSC)C(=O)N[C@@H](CC(N)=O)C(=O)N[C@H](C(=O)N[C@@H](CO)C(=O)N[C@@H](CCC(=O)O)C(=O)N[C@@H](CCC(=O)O)C(=O)N[C@@H](CCC(=O)O)C(=O)N[C@@H](CCC(=O)O)C(=O)O)[C@@H](C)O [Fluorescein-Spir-2-GTBM] ({5FAM-Ahx}-QRPRPRVLLKAPTLAEMEEMNTSEEEE-OH)

binding affinity in words (MyoVc-GTD): micromolar range affinity
binding affinity in words (MyoVb-GTD [1]; human Spir-2 aa 401–427): low micromolar affinity
Molecule: QRPRPRVLLKAPTLAEMEEMNTSEEEE [Spir-2-GTBM]

Kd (MyoVb-GTD [3]): 1370 ± 240 nM
Kd (MyoVa-GTD [4]): 203 ± 42 nM
B1: Rab11GTP: Rab11a-Q70L(GTP) captured through its His6-tag (protein, UniProt P62491 2-213, looked up, variant Q70L)
Ras-related protein Rab-11A: GTRDDEYDYLFKVVLIGDSGVGKSNLLSRFTRNEFNLESKSTIGVEFATRSIQVDGKTIKAQIWDTAGLERYRAITSAYYRGAVGALLVYDIAKHLTYENVERWLKELRDHADSNIVIMLVGNKSDLRHLRAVPTDEARAFAEKNGLSFIETSALDSTNVEAAFQTILTEIYRIVSQKQMSDRRENDMSPSNNVVPIHVPPTTENKPKVQCC
modifications: His6 tag; GTP-bound

— paper PMC5021521, “Coordinated recruitment of Spir actin nucleators and myosin V motors to Rab11 vesicle membranes” (eLife, 2016)
